Measurements: paper PMC8402726 (Viruses, 2021)
Where two headings read alike, the source gives them in different places.

What was measured:
in vitro [1] = settings: cat (Felis catus)
FIPV = experiment: Viral titer reduction assay, FIPV in CRFK cells (plaque assay readout); type: cell-based, feline infectious peritonitis virus; settings: for Inhibition of FIPV replication at single concentration: 50 µM, initial screening; for Inhibition of FIPV replication at single concentration / EC50 / Anti-FIPV activity lower compared with remdesivir: CRFK cells; for SI: CC50/EC50, CRFK cells; for SI / EC50: FIPV; for EC50: MOI 0.1, 48 h, 50% reduction in viral titers, read-out: EC50 (µM) (95% CI); for Anti-FIPV activity lower compared with remdesivir: relative to remdesivir EC50
in vitro [2] = settings: African green monkey
SARS-CoV-2 RdRp = SARS-CoV-2 RdRp (Severe acute respiratory syndrome coronavirus 2, UniProt P0DTD1); experiment: biochemical; type: biochemical; settings: for Inhibition of SARS-CoV-2 RdRp at one concentration: in vitro RdRp assay, 100 µM
SARS-CoV-2 [3] = experiment: microbe, parasite or virus in culture; type: cell-based; settings: for SI: CC50/EC50, CaCo-2 cells, SARS-CoV-2; for EC50: Severe acute respiratory syndrome coronavirus 2, CaCo-2 cells, MOI 0.1, 48 h, 50% reduction in viral titers, read-out: EC50 (µM) (95% CI)
SARS-CoV-2 [4] = experiment: microbe, parasite or virus in culture; type: cell-based; settings: for Inhibition of SARS-CoV-2 replication at single concentration: 50 µM, initial screening; for Inhibition of SARS-CoV-2 replication at single concentration / EC50: Vero cells; for SI: CC50/EC50, Vero cells, SARS-CoV-2; for EC50: Severe acute respiratory syndrome coronavirus 2, MOI 0.1, 48 h, 50% reduction in viral titers, read-out: EC50 (µM) (95% CI)
in vitro [5] = settings: human
Vero cells = settings: 50 µM
CaCo-2 cells = settings: 50 µM
[6] = Cytotoxicity (Cell Counting Kit-8, WST-8) in Vero cells; settings: African green monkey
[7] = Cytotoxicity (Cell Counting Kit-8, WST-8) in CaCo-2 cells; settings: human
[8] = Cytotoxicity (Cell Counting Kit-8, WST-8) in CRFK cells; settings: cat (Felis catus)
[9] = radioactive primer extension assay, n = 3, ± standard error of the mean, read-out: IC50

SMILES | CC50 at 48 h (in vitro [1]) | Inhibition of FIPV replication at single concentration (FIPV) | SI (FIPV) | EC50 (FIPV) | Anti-FIPV activity lower compared with remdesivir (FIPV) | CC50 at 48 h (in vitro [2]) | Inhibition of SARS-CoV-2 RdRp at one concentration (SARS-CoV-2 RdRp) | SI (SARS-CoV-2 [3]) | EC50 (SARS-CoV-2 [3]) | Inhibition of SARS-CoV-2 replication at single concentration (SARS-CoV-2 [4]) | SI (SARS-CoV-2 [4]) | EC50 (SARS-CoV-2 [4]) | CC50 at 48 h (in vitro [5]) | IC50 (SARS-CoV-2 RdRp; [9]) | also measured
O=C(N[C@@H](Cc1ccc(O)cc1)C(=O)O)c1cc(-c2ccccc2)c(=O)n2c1sc1ccc(OC3CCCCC3)cc12 [Compound 16, reference compound] | > 50 µM | completely inhibit | >47.1 | 1.06 µM | approx. 5 fold | > 50 µM | inhibit | >52.7 | 0.949 µM | completely inhibit | >76.5 | 0.653 µM | > 50 µM |  | SI (FIPV; listed as HeE1-2Tyr (16)): exceeding 40; IC50 (SARS-CoV-2 RdRp): 27.6 ± 2.1 µM; SI (SARS-CoV-2 [3]; listed as HeE1-2Tyr (16)): > 50; SI (SARS-CoV-2 [4]; listed as HeE1-2Tyr (16)): > 70
O=C(N[C@@H](Cc1ccccc1)C(=O)O)c1cc(-c2ccccc2)c(=O)n2c1sc1ccc(OC3CCCCC3)cc12 [Compound 17] | > 50 µM | completely inhibit |  | 0.999 µM | approx. 5 fold | > 50 µM | inhibit | >50.2 | 0.996 µM | completely inhibit | >94.8 | 0.527 µM | > 50 µM | 41.2 ± 1.7 µM | viability at 48 h, 50 µM (in vitro [1]): ~60%; Cell viability (Vero cells): approx. 125 % of untreated cells; Cell viability (CaCo-2 cells): approx. 125 % of untreated cells
O=C(N[C@@H](Cc1ccc(O)cc1)C(=O)O)c1ccc(=O)n2c1sc1ccc(OC3CCCCC3)cc12 [Compound 18] | > 50 µM | inactive | >1 |  |  | > 50 µM | inhibit | >2 | > 25 µM | inactive | >1 | > 50 µM | > 50 µM | 85.5 ± 2 µM | 
CCC(CC)COC(=O)[C@H](C)N[P@](=O)(OC[C@H]1O[C@@](C#N)(c2ccc3c(N)ncnn23)[C@H](O)[C@@H]1O)Oc1ccccc1 [Remdesivir] |  |  | >224.2 |  |  |  |  |  | < 0.3 µM |  | >55.5 | 0.901 µM |  |  | CC50 at 48 h [6]: > 50 µM; CC50 at 48 h [7]: > 50 µM; CC50 at 48 h [8]: > 50 µM
